{"source": "ChEMBL document CHEMBL6134838", "about": "“Discovery of c-Kit as a New Therapeutic Target in LPS-Induced Acute Lung Injury through Novel Phenylamide Derivative D9” (J Med Chem, 2025)", "data": [{"test_system": "not listed separately", "experiment": "Cytotoxicity against mouse J774.A1 cells assessed as survival rate at 10 uM measured for 48 hrs by MTT assay relative to control", "details": "not given", "units": {"viability at 48 h, 10 µM": "%"}, "values": [{"smiles": "O=C(NCCCN1CCOCC1)c1cc(Oc2ccc(NC(=O)c3cn(-c4ccc(Br)cc4F)c4ccccc4c3=O)cc2)ccn1", "viability at 48 h, 10 µM": 92.2}, {"smiles": "O=C(NCCCN1CCOCC1)c1cc(Oc2ccc(NC(=O)c3cn(-c4ccccc4)c4ccccc4c3=O)cc2)ccn1", "viability at 48 h, 10 µM": 82.7}, {"smiles": "O=C(NCCc1cccs1)c1cc(Oc2ccc(NC(=O)c3cn(-c4ccc(Br)cc4)c4ccccc4c3=O)cc2)ccn1", "viability at 48 h, 10 µM": 84.4}, {"smiles": "O=C(NCCCN1CCOCC1)c1cc(Oc2ccc(NC(=O)c3cn(-c4ccc(F)c(Cl)c4)c4ccccc4c3=O)cc2F)ccn1", "viability at 48 h, 10 µM": "> 100"}, {"smiles": "O=C(NCCc1cccs1)c1cc(Oc2ccc(NC(=O)c3cn(-c4ccc(Br)cc4)c4ccccc4c3=O)cc2F)ccn1", "viability at 48 h, 10 µM": 84.3}, {"smiles": "O=C(NCCc1cccs1)c1cc(Oc2ccc(NC(=O)c3cn(-c4ccccc4)c4ccccc4c3=O)cc2)ccn1", "viability at 48 h, 10 µM": 72}, {"smiles": "O=C(NCCCN1CCOCC1)c1cc(Oc2ccc(NC(=O)c3cn(-c4ccc(Cl)cc4)c4ccccc4c3=O)cc2F)ccn1", "viability at 48 h, 10 µM": 77.8}, {"smiles": "COc1ccc(-n2cc(C(=O)Nc3ccc(Oc4ccnc(C(=O)NCCc5cccs5)c4)cc3)c(=O)c3ccccc32)cc1", "viability at 48 h, 10 µM": 88.3}, {"smiles": "O=C(NCCc1cccs1)c1cc(Oc2ccc(NC(=O)c3cn(-c4ccc(Br)cc4F)c4ccccc4c3=O)cc2F)ccn1", "viability at 48 h, 10 µM": 97.1}, {"smiles": "COc1ccc(-n2cc(C(=O)Nc3ccc(Oc4ccnc(C(=O)NCCCN5CCOCC5)c4)cc3)c(=O)c3ccccc32)cc1", "viability at 48 h, 10 µM": 87}, {"smiles": "O=C(NCCCN1CCOCC1)c1cc(Oc2ccc(NC(=O)c3cn(-c4ccc(Br)cc4)c4ccccc4c3=O)cc2)ccn1", "viability at 48 h, 10 µM": "> 100"}, {"smiles": "O=C(NCCCN1CCOCC1)c1cc(Oc2ccc(NC(=O)c3cn(-c4ccc(Br)cc4)c4ccccc4c3=O)cc2F)ccn1", "viability at 48 h, 10 µM": 91.3}, {"smiles": "O=C(NCCc1cccs1)c1cc(Oc2ccc(NC(=O)c3cn(-c4ccc(Cl)cc4)c4ccccc4c3=O)cc2)ccn1", "viability at 48 h, 10 µM": 86.2}, {"smiles": "O=C(NCCc1cccs1)c1cc(Oc2ccc(NC(=O)c3cn(-c4ccccc4)c4ccccc4c3=O)cc2F)ccn1", "viability at 48 h, 10 µM": 99.8}, {"smiles": "O=C(NCCCN1CCOCC1)c1cc(Oc2ccc(NC(=O)c3cn(-c4ccccc4)c4ccccc4c3=O)cc2F)ccn1", "viability at 48 h, 10 µM": 83.2}, {"smiles": "O=C(NCCc1cccs1)c1cc(Oc2ccc(NC(=O)c3cn(-c4ccc(Br)cc4F)c4ccccc4c3=O)cc2)ccn1", "viability at 48 h, 10 µM": 92.8}, {"smiles": "COc1ccc(-n2cc(C(=O)Nc3ccc(Oc4ccnc(C(=O)NCCc5cccs5)c4)c(F)c3)c(=O)c3ccccc32)cc1", "viability at 48 h, 10 µM": 85.3}, {"smiles": "O=C(NCCc1cccs1)c1cc(Oc2ccc(NC(=O)c3cn(-c4ccc(F)c(Cl)c4)c4ccccc4c3=O)cc2)ccn1", "viability at 48 h, 10 µM": "> 100"}, {"smiles": "O=C(NCCCN1CCOCC1)c1cc(Oc2ccc(NC(=O)c3cn(-c4ccc(F)c(Cl)c4)c4ccccc4c3=O)cc2)ccn1", "viability at 48 h, 10 µM": "> 100"}, {"smiles": "O=C(NCCc1cccs1)c1cc(Oc2ccc(NC(=O)c3cn(-c4ccc(Cl)cc4)c4ccccc4c3=O)cc2F)ccn1", "viability at 48 h, 10 µM": 7.46}, {"smiles": "O=C(NCCCN1CCOCC1)c1cc(Oc2ccc(NC(=O)c3cn(-c4ccc(F)cc4)c4ccccc4c3=O)cc2F)ccn1", "viability at 48 h, 10 µM": 94.1}, {"smiles": "O=C(NCCCN1CCOCC1)c1cc(Oc2ccc(NC(=O)c3cn(-c4ccc(Cl)cc4)c4ccccc4c3=O)cc2)ccn1", "viability at 48 h, 10 µM": "> 100"}, {"smiles": "O=C(NCCc1cccs1)c1cc(Oc2ccc(NC(=O)c3cn(-c4ccc(F)cc4)c4ccccc4c3=O)cc2F)ccn1", "viability at 48 h, 10 µM": "> 100"}, {"smiles": "COc1ccc(-n2cc(C(=O)Nc3ccc(Oc4ccnc(C(=O)NCCCN5CCOCC5)c4)c(F)c3)c(=O)c3ccccc32)cc1", "viability at 48 h, 10 µM": 22.9}, {"smiles": "O=C(NCCCN1CCOCC1)c1cc(Oc2ccc(NC(=O)c3cn(-c4ccc(Br)cc4F)c4ccccc4c3=O)cc2F)ccn1", "viability at 48 h, 10 µM": 90.7}, {"smiles": "O=C(NCCc1cccs1)c1cc(Oc2ccc(NC(=O)c3cn(-c4ccc(F)c(Cl)c4)c4ccccc4c3=O)cc2F)ccn1", "viability at 48 h, 10 µM": 77.7}, {"smiles": "O=C(NCCCN1CCOCC1)c1cc(Oc2ccc(NC(=O)c3cn(-c4ccc(F)cc4)c4ccccc4c3=O)cc2)ccn1", "viability at 48 h, 10 µM": 87.1}, {"smiles": "COc1cc(/C=C/C(=O)CC(=O)/C=C/c2ccc(O)c(OC)c2)ccc1O", "note": "[CURCUMIN]", "viability at 48 h, 10 µM": 94.9}]}, {"test_system": "J774.A1", "experiment": "cells", "details": "Mus musculus, J774.A1, 24 h", "units": {"IC50": "µM"}, "description": "Antiinflammatory activity against mouse J774.A1 cells assessed as inhibition of LPS-stimulated IL-6 release measured for 24 hrs by ELISA method", "values": [{"smiles": "O=C(NCCCN1CCOCC1)c1cc(Oc2ccc(NC(=O)c3cn(-c4ccc(Br)cc4)c4ccccc4c3=O)cc2F)ccn1", "IC50": 6.16}]}]}
